Experimental data from PubChem BioAssay (NCI).
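Five concentrations, 48 hours, 96-well plates. Here, GI50 denotes the concentration required for 50% inhibition of growth. Definition used: TGI = concentration required for complete inhibition of growth.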

Key:
Experiment in all cases: NCI anticancer screen, dose series, 48 h
HCC-2998 colon = system: HCC-2998 colon
NCI-H226 lung = system: NCI-H226 lung
RXF 393 renal = system: RXF 393 renal
SK-MEL-2 melanoma = system: SK-MEL-2 melanoma
ACHN renal = system: ACHN renal
KM12 colon = system: KM12 colon
A549 NSCLC = system: A549 NSCLC
CCRF-CEM leukemia = system: CCRF-CEM leukemia
M14 melanoma = system: M14 melanoma
NCI/ADR-RES ovarian = system: NCI/ADR-RES ovarian
SR leukemia = system: SR leukemia
SF-295 CNS = system: SF-295 CNS
UO-31 renal = system: UO-31 renal
PC-3 prostate = system: PC-3 prostate
OVCAR-4 ovarian = system: OVCAR-4 ovarian
CAKI-1 renal = system: CAKI-1 renal
OVCAR-3 ovarian = system: OVCAR-3 ovarian
HOP-62 NSCLC = system: HOP-62 NSCLC
COLO 205 colon = system: COLO 205 colon
SK-MEL-28 melanoma = system: SK-MEL-28 melanoma
NCI-H522 lung = system: NCI-H522 lung
NCI-H460 lung = system: NCI-H460 lung
MDA-MB-231 breast = system: MDA-MB-231 breast
NCI-H23 lung = system: NCI-H23 lung
OVCAR-8 ovarian = system: OVCAR-8 ovarian
HT29 colon = system: HT29 colon
BT-549 breast = system: BT-549 breast
EKVX NSCLC = system: EKVX NSCLC
SN12C renal = system: SN12C renal
HCT-15 colon = system: HCT-15 colon
HL-60(TB) leukemia = system: HL-60(TB) leukemia
U251 CNS = system: U251 CNS
HOP-92 NSCLC = system: HOP-92 NSCLC
SNB-19 CNS = system: SNB-19 CNS
K-562 leukemia = system: K-562 leukemia
MOLT-4 leukemia = system: MOLT-4 leukemia
SK-MEL-5 melanoma = system: SK-MEL-5 melanoma
SK-OV-3 ovarian = system: SK-OV-3 ovarian
MDA-MB-435 = system: MDA-MB-435
SW-620 colon = system: SW-620 colon
UACC-62 melanoma = system: UACC-62 melanoma
TK-10 renal = system: TK-10 renal
786-0 renal = system: 786-0 renal
LOX IMVI melanoma = system: LOX IMVI melanoma
UACC-257 melanoma = system: UACC-257 melanoma
OVCAR-5 ovarian = system: OVCAR-5 ovarian
DU-145 prostate = system: DU-145 prostate
SF-268 CNS = system: SF-268 CNS
HCT-116 colon = system: HCT-116 colon
T-47D breast = system: T-47D breast

Compound: NC(=NC1CCCCCC1)c1ccc(N2CCN(c3ccc(C(N)=NC4CCCCCC4)cc3)CC2)cc1
- GI50 (HCC-2998 colon): 8.9 µM
- TGI (HCC-2998 colon): > 50 µM
- GI50 (NCI-H226 lung): 7.64 µM
- TGI (NCI-H226 lung): 28.9 µM
- GI50 (RXF 393 renal): 9.99 µM
- TGI (RXF 393 renal): 35.6 µM
- GI50 (SK-MEL-2 melanoma): 7.65 µM
- TGI (SK-MEL-2 melanoma): 18.1 µM
- GI50 (ACHN renal): 46.4 µM
- TGI (ACHN renal): > 50 µM
- GI50 (KM12 colon): 8.35 µM
- TGI (KM12 colon): 30.2 µM
- GI50 (A549 NSCLC): 9.29 µM
- TGI (A549 NSCLC): > 50 µM
- GI50 (CCRF-CEM leukemia): 10.5 µM
- TGI (CCRF-CEM leukemia): 46.5 µM
- GI50 (M14 melanoma): 8.74 µM
- TGI (M14 melanoma): 30.5 µM
- GI50 (NCI/ADR-RES ovarian): > 50 µM
- TGI (NCI/ADR-RES ovarian): > 50 µM
- GI50 (SR leukemia): 6.64 µM
- TGI (SR leukemia): 19.8 µM
- GI50 (SF-295 CNS): 3.89 µM
- TGI (SF-295 CNS): 19.9 µM
- GI50 (UO-31 renal): 33.7 µM
- TGI (UO-31 renal): > 50 µM
- GI50 (PC-3 prostate): 12.1 µM
- TGI (PC-3 prostate): > 50 µM
- GI50 (OVCAR-4 ovarian): 26.6 µM
- TGI (OVCAR-4 ovarian): > 50 µM
- GI50 (CAKI-1 renal): > 50 µM
- TGI (CAKI-1 renal): > 50 µM
- GI50 (OVCAR-3 ovarian): 4.28 µM
- TGI (OVCAR-3 ovarian): 28.8 µM
- GI50 (HOP-62 NSCLC): 8.48 µM
- TGI (HOP-62 NSCLC): 22.6 µM
- GI50 (COLO 205 colon): 14.7 µM
- TGI (COLO 205 colon): > 50 µM
- GI50 (SK-MEL-28 melanoma): 10.7 µM
- TGI (SK-MEL-28 melanoma): 22.4 µM
- GI50 (NCI-H522 lung): 5.42 µM
- TGI (NCI-H522 lung): 23.9 µM
- GI50 (NCI-H460 lung): 3.65 µM
- TGI (NCI-H460 lung): 16.8 µM
- GI50 (MDA-MB-231 breast): 8.39 µM
- TGI (MDA-MB-231 breast): 29 µM
- GI50 (NCI-H23 lung): 4.77 µM
- TGI (NCI-H23 lung): 18.5 µM
- GI50 (OVCAR-8 ovarian): 9 µM
- TGI (OVCAR-8 ovarian): > 50 µM
- GI50 (HT29 colon): 9.3 µM
- TGI (HT29 colon): > 50 µM
- GI50 (BT-549 breast): 2.1 µM
- TGI (BT-549 breast): 5.48 µM
- GI50 (EKVX NSCLC): 1.44 µM
- TGI (EKVX NSCLC): 23 µM
- GI50 (SN12C renal): 2.33 µM
- TGI (SN12C renal): 16.9 µM
- GI50 (HCT-15 colon): 24.3 µM
- TGI (HCT-15 colon): > 50 µM
- GI50 (HL-60(TB) leukemia): 14.1 µM
- TGI (HL-60(TB) leukemia): > 50 µM
- GI50 (U251 CNS): 3.02 µM
- TGI (U251 CNS): 11.3 µM
- GI50 (HOP-92 NSCLC): 8.29 µM
- TGI (HOP-92 NSCLC): 28.7 µM
- GI50 (SNB-19 CNS): 10.1 µM
- TGI (SNB-19 CNS): 27.1 µM
- GI50 (K-562 leukemia): 4.57 µM
- TGI (K-562 leukemia): > 50 µM
- GI50 (MOLT-4 leukemia): 23.9 µM
- TGI (MOLT-4 leukemia): > 50 µM
- GI50 (SK-MEL-5 melanoma): 1.33 µM
- TGI (SK-MEL-5 melanoma): 6.76 µM
- GI50 (SK-OV-3 ovarian): 15.7 µM
- TGI (SK-OV-3 ovarian): 44.9 µM
- GI50 (MDA-MB-435): 7.85 µM
- TGI (MDA-MB-435): 26.1 µM
- GI50 (SW-620 colon): 10.8 µM
- TGI (SW-620 colon): > 50 µM
- GI50 (UACC-62 melanoma): 7.8 µM
- TGI (UACC-62 melanoma): 17.2 µM
- GI50 (TK-10 renal): 14.6 µM
- TGI (TK-10 renal): > 50 µM
- GI50 (786-0 renal): 10.7 µM
- TGI (786-0 renal): 43.9 µM
- GI50 (LOX IMVI melanoma): 3.05 µM
- TGI (LOX IMVI melanoma): 20.3 µM
- GI50 (UACC-257 melanoma): 9.75 µM
- TGI (UACC-257 melanoma): > 50 µM
- GI50 (OVCAR-5 ovarian): 25.4 µM
- TGI (OVCAR-5 ovarian): > 50 µM
- GI50 (DU-145 prostate): 7.59 µM
- TGI (DU-145 prostate): > 50 µM
- GI50 (SF-268 CNS): 6.92 µM
- TGI (SF-268 CNS): 15 µM
- GI50 (HCT-116 colon): 10.2 µM
- TGI (HCT-116 colon): 48.8 µM
- GI50 (T-47D breast): 15.2 µM
- TGI (T-47D breast): > 50 µM
